# Data taken from patent US20090081197A1 (Palatin Technologies, Inc., priority 2007, published 2009).
# Legend:
# MC5-R = MC5-R (Homo sapiens, UniProt P33032); assay: Competitive inhibition assay using [I^125]-NDP-α-MSH, hMC5-R membranes; type: binding; design: expressed in transfected cells; details: for inhibition at 1 µM: 1 μM test compound, read-out: Inhibition at 1 μM (NDP-α-MSH) In Normal System, MC5-R; for Ki: read-out: Ki (nM) (NDP-α-MSH) In Normal System, MC5-R
# Procedure: (§1) The ligand concentration used was 0.4 nM for MC3-R and MC5-R, 0.2 nM for MC4-R and 0.1 nM for B16-F10 (MC1-R) membranes. In certain experiments, hMC1-R was also employed.
# (§2) The assay mixture was incubated for 90 minutes at room temperature, then filtered and the membranes washed three times with ice cold buffer. The filter was dried and counted in a gamma counter for remaining radioactivity bound to the membranes. […] Each assay was conducted in triplicate and the actual mean values are described, with results less than 0% reported as 0%.
# MC4-R [1] = molecular target: T1, MC4-R (Homo sapiens, UniProt P32245); assay: cAMP functional activity assay in HEK-293 cells, normal system; type: cell-based; design: expressed in transfected cells; host or cells: HEK-293; details: for intrinsic activity at MC4-R in a normal system / EC50: normal receptor density system; for intrinsic activity at MC4-R in a normal system: NDP-α-MSH = 1.0; for functional status at MC4-R in cAMP assay: normal system, 1 μM concentration where stated
# Procedure: General method for EC50 determination in functional activity assay. […] Data analysis and EC50 values were determined using nonlinear regression analysis with Prism Graph-Pad software.
# Functional status. The agonist/antagonist status with respect to MC1-R, MC-3R, MC4-R and MC5-R of certain compounds of the invention was determined. Antagonistic activity was determined by measuring the inhibition of α-MSH-induced or NDP-α-MSH-induced cAMP levels following exposure to graded doses of compounds as in the preceding descriptions.
# Assay for agonist. Evaluation of the molecules to elicit a functional response in HEK-293 cells expressing MC4-R was accomplished by measuring the accumulation of intracellular cAMP following treatment. Confluent HEK-293 cells expressing MC4-R receptors were detached by enzyme free cell suspension buffer. […] The cells were plated in a 96 well plates at a density of 0.5×10^5 cells per well and pre-incubated for 30 minutes. Test compounds (dissolved in dimethylsulfoxide (DMSO) at a concentration range of 0.05-5000 nM) were added in a total assay volume of 200 μL and cells were incubated for 1 hour at 37° C. The concentration of DMSO was always held at 1% in the assay mixture. NDP-α-MSH was used as the reference agonist. […] Data analysis and EC50 values were determined by using nonlinear regression analysis with Prism Graph-Pad software. […] Compounds with a response ratio of less than 0.1 (10%) were evaluated for antagonistic activity.
# [2] = IP (and IN) food intake, mice; type: in vivo; details: mouse, IP; for inhibition in vivo at 3 mg/kg / inhibition in vivo at 10 mg/kg / maximal decrease in food intake: 4 hours; for inhibition in vivo at 3 mg/kg / inhibition in vivo at 10 mg/kg: read-out: maximal decrease in food intake; for decrease in food intake: 20 hours
# Procedure: IV and IP food intake and body weight change. Change in food intake and body weight was evaluated for selected compounds. Male Sprague-Dawley rats or male C57BL/6 mice were utilized. Animals were individually housed in conventional plexiglass hanging cages and maintained on a controlled 12 hour on/off light cycle. Water and powdered (LabDiet, 5P00 Prolab RMH 3000) or pelleted (Harlan Teklad 2018 18% Protein Rodent Diet) food was provided ad libitum. For 1 week before treatment, 24-hour food intake and body weight change was recorded to assess a baseline for the group during vehicle treatment. The rats were dosed IV with vehicle or selected compounds (0.5-3 mg/kg, and in some cases up to 10 mg/Kg) or dosed intraperitoneally (IP) with vehicle or selected compounds (0.5-10 mg/kg, and in some cases up to 50 mg/kg). Mice were dosed IP. […] The changes in body weight and food intake for the 48 hour and 72 hour periods after dosing were also measured to determined reversal of changes in body weight and food intake effects back to baseline levels.
# MC4-R [3] = molecular target: T1, MC4-R; assay: Competitive inhibition assay using [I^125]-NDP-α-MSH, hMC4-R membranes; type: binding; design: host or cells: TREx-293 (HEK-293 stably expressing Tet repressor); details: for inhibition at 1 µM: 1 μM test compound, read-out: Inhibition at 1 μM (NDP-α-MSH) In Normal System, MC4-R; for Ki: read-out: Ki (nM) (NDP-α-MSH) In Normal System, MC4-R
# Procedure: as §1, §2
# MC4-R [4] = molecular target: T1, MC4-R; assay: cAMP agonist stimulation, low receptor density system (0.1 ng/mL doxycycline); details: for Efficacy/Intrinsic Activity: 0.1 ng/mL doxycycline, low receptor density hMC4-R system, NDP-α-MSH maximal cAMP = 1.0
# [5] = Penile erection induction in male rats; type: in vivo
# Procedure: Penile erection induction. The ability of compounds to induce penile erection (PE) in male rats was evaluated with selected compounds. Male Sprague-Dawley rats weighing 200-250 g were kept on a 12 hour on/off light cycle with food and water ad libitum. All behavioral studies were performed between 10 A.M. and 5 P.M. Groups of 4-8 rats were treated with compounds at a variety of doses via intravenous (IV) or intracerebroventricular (ICV) routes. Immediately after treatment, rats were placed into individual polystyrene cages (27 cm long, 16 cm wide, and 25 cm high) for behavioral observation. […] Controls utilized carrier without the test compound. Mean PEs in control groups were 0.17 to 0.5 PEs/rat by IV administration in various experiments and between 1-2 PEs/rat by ICV administration in various experiments, and thus only PEs with statistically relevant increases over the mean PEs in control groups are reported as inducing PEs. A PE response in IV animals greater than the mean PEs in control groups but less than 1.0 PEs/rat, particularly with less than all animals responding, was treated as equivocal, and not necessarily distinguishable from vehicle control. In selected instances, compounds with equivocal results in the IV model were tested for penile response in an ICV model, and compounds without a statistically relevant increase over the mean PEs in ICV control groups were determined to not induce PEs.
# MC1-R = molecular target: T2, MC1-R (Mus musculus, UniProt Q01727); assay: Competitive inhibition assay using [I^125]-NDP-α-MSH, B-16 mouse melanoma cell membranes; type: binding; details: for inhibition at 1 µM: 1 μM test compound, read-out: Inhibition at 1 μM (NDP-α-MSH) In Normal System, MC1-R; for Ki: read-out: Ki (nM) (NDP-α-MSH) In Normal System, MC1-R
# T2 construct: B-16 mouse melanoma cells (containing MC1-R); endogenous in cells
# Procedure: as §1, §2
# MC4-R [6] = molecular target: T1, MC4-R; assay: cAMP agonist stimulation, high receptor density system (10 ng/mL doxycycline); details: for Efficacy/Intrinsic Activity: 10 ng/mL doxycycline, high receptor density hMC4-R system, NDP-α-MSH maximal cAMP = 1.0
# MC3-R = MC3-R (Homo sapiens, UniProt P41968); assay: Competitive inhibition assay using [I^125]-NDP-α-MSH, hMC3-R membranes; type: binding; design: expressed in transfected cells; details: for inhibition at 1 µM: 1 μM test compound, read-out: Inhibition at 1 μM (NDP-α-MSH) In Normal System, MC3-R; for Ki: read-out: Ki (nM) (NDP-α-MSH) In Normal System, MC3-R
# Procedure: as §1, §2
# Chain of MC5-R (P33032 whole entry): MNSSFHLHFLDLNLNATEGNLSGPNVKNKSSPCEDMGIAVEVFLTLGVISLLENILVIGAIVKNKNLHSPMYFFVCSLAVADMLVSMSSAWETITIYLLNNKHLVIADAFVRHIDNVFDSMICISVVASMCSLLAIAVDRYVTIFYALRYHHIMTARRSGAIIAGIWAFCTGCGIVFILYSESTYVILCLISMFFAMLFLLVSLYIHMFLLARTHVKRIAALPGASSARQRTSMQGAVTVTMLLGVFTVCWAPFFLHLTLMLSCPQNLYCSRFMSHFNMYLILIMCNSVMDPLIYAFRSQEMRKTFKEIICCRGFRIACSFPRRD
# T1 sequence (P32245 whole entry): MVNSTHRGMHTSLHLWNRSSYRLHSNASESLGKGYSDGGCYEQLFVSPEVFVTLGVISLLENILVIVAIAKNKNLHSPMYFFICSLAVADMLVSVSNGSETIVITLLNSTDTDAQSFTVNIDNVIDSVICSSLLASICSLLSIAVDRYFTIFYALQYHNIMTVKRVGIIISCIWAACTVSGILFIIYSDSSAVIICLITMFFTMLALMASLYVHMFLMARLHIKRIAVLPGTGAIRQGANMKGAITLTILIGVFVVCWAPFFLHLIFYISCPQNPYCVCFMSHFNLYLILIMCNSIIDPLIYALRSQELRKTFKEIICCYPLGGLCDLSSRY
# Chain of MC3-R (P41968 whole entry): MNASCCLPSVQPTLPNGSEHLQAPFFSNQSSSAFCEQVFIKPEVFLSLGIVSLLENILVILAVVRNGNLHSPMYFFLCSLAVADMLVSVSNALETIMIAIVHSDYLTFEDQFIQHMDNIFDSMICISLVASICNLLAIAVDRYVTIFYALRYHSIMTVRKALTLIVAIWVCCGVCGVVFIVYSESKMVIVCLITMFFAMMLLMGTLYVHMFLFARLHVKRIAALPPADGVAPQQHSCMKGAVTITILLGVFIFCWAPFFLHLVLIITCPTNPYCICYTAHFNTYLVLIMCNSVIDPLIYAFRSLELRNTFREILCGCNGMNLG
# T2 sequence (Q01727 whole entry): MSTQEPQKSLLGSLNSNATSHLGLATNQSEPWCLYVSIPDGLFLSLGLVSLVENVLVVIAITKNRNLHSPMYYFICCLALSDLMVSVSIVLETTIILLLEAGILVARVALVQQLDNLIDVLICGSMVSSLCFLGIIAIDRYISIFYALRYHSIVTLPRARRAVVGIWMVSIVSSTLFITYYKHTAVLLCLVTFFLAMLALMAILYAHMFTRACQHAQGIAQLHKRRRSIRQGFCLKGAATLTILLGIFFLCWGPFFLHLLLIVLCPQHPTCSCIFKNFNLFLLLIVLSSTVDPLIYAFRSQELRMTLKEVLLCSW
Ki (MC5-R) [nM],EC50 (MC4-R [1]) [nM],Ki (MC4-R [3]) [nM],Ki (MC3-R) [nM],Structure (SMILES),inhibition at 1 µM (MC5-R) [%],intrinsic activity at MC4-R in a normal system (MC4-R [1]),functional status at MC4-R in cAMP assay (MC4-R [1]),inhibition in vivo at 3 mg/kg ([2]; 3 mg/kg) [%],inhibition in vivo at 10 mg/kg ([2]; 10 mg/kg) [%],inhibition at 1 µM (MC4-R [3]) [%],Efficacy/Intrinsic Activity (MC4-R [4]),"Penile Erection IV ([5]; rat, IV)","penile erection response ([5]; rat, IV, 1 and 3 mg/kg)",inhibition at 1 µM (MC1-R) [%],EC50 (MC4-R [6]) [µM],Efficacy/Intrinsic Activity (MC4-R [6]),inhibition at 1 µM (MC3-R) [%],Ki (MC1-R) [nM],EC50 (MC4-R [4]) [µM],also measured
–,–,–,–,"Cc1cc(Cl)ccc1C[C@@H](N)C(=O)N1C[C@@H](C)N(CCc2ccc3ccccc3c2)C[C@@H]1CCCNC(=N)N [Example 26, N-{3-[1-[2(R)-Amino-3-(2-methyl, 4-chloro-phenyl)-propionyl]-5(R)-methyl-4-(2-naphthalen-2-yl-ethyl)-piperazin-2(S)-yl]-propyl}-guanidine]",77,0.3,partial agonist (intrinsic activity between 0.1 (10%) and 0.7 (70%) is classified as a partial agonist),44,86,100,None,No,no penile erection,6,0.031,0.78,74,–,–,–
–,–,–,–,"CC(=O)N[C@H](Cc1ccc2ccccc2c1)C(=O)N1C[C@@H](CC(C)C)N(CCc2ccc3ccccc3c2)C[C@@H]1CCCNC(=N)N [Example 12, N-{2-[2(S)-(3-Guanidino-propyl)-5(R)-isobutyl-4-(2-naphthalen-2-yl-ethyl)-piperazin-1-yl]-1(R)-naphthalen-2-ylmethyl-2-oxo-ethyl}-acetamide]",64,–,–,–,–,100,None,–,–,0,–,None,40,4620,–,maximal decrease in food intake ([2]; 10 mg/kg): 46%
234,3,5,136,"CC(=O)N[C@H](Cc1ccc(Cl)cc1C)C(=O)N1C[C@@H](C)N(C(=O)Cc2ccc3ccccc3c2)C[C@@H]1CCCNC(=N)N [Example 31, N-{(R)-1-(2-methyl, 4-chloro-benzyl)-2-[(2S,5R)-2-(3-guanidino-propyl)-5-methyl-4-(2-naphthalen-2-yl-acetyl)-piperazin-1-yl]-2-oxo-ethyl}-acetamide]",–,0.6,partial agonist (intrinsic activity between 0.1 (10%) and 0.7 (70%) is classified as a partial agonist),–,7,–,None,No,–,–,0.039,0.27,–,1390,–,"penile erection response ([5]; rat, IV, 0.0003 to 0.03 mg/kg): no penile activity response"
–,–,–,–,"Cc1ccc(C[C@@H](N)C(=O)N2C[C@@H](C)N(CCc3ccc4ccccc4c3)C[C@@H]2CCCNC(=N)N)c(C)c1 [Example 27, N-{3-[1-[2(R)-Amino-3-(2,4-dimethyl-phenyl)-propionyl]-5(R)-methyl-4-(2-naphthalen-2-yl-ethyl)-piperazin-2(S)-yl]-propyl}-guanidine]",59,0.2,partial agonist (intrinsic activity between 0.1 (10%) and 0.7 (70%) is classified as a partial agonist),47,88,100,None,No,no penile erections,9,0.129,0.61,62,1230,–,"Penile Erection ICV ([5]; rat, ICV): No; penile erection response ([5]; rat, ICV, 1 and 3 nmole): no penile erection response"
1540,46,6,526,Cc1ccc(C[C@@H](N)C(=O)N2C[C@@H](C)N(C(=O)Cc3ccc4ccccc4c3)C[C@@H]2CCCNC(=N)N)c(C)c1 [Example 29],7,0.8,agonist (intrinsic activity of 0.7 (70%) or higher is classified as an agonist),–,–,85,0.25,Yes*,–,0,0.034,0.77,25,431,0.045,"decrease in food intake ([2]; 3 mg/kg): 3%; decrease in food intake ([2]; 10 mg/kg): 26%; maximum mean PEs per rat ([5]; IV, 0.0003 to 0.03 mg/kg): 0.5; animals responding ([5]; rat, IV, 0.0003 to 0.03 mg/kg): no more than 50%"
–,–,–,–,"C[C@@H]1CN(C(=O)[C@H](N)Cc2ccc(Cl)cc2)[C@@H](CCCNC(=N)N)CN1CCc1ccc2ccccc2c1 [Example 28, N-{3-[1-[2(R)-Amino-3-(4-chloro-phenyl)-propionyl]-5(R)-methyl-4-(2-naphthalen-2-yl-ethyl)-piperazin-2(S)-yl]-propyl}-guanidine]",61,0.8,agonist (intrinsic activity of 0.7 (70%) or higher is classified as an agonist),–,–,97,0.29,No,–,64,0.024,0.75,70,–,0.106,"maximal decrease in food intake ([2]; 3 mg/kg): 46%; penile erection response ([5]; rat, IV, 0.003 to 3 mg/kg): no penile erections"
